# Laboratory results taken from patent publication US11306101B2 (Celgene Corporation, priority 2019, dated 2022).
# Molecular target: T1, CK1α (Homo sapiens, UniProt P48729+Q96SW2)
# T1 construct: expressed in transfected cells
# Experiment: CK1α ePL degradation assay in MDS-L cells
# Format: cell-based
# Details: MDS-L cells expressing ePL-tagged CK1α; for DC50: concentration giving 50% CK1α degradation vs DMSO control; for Y: lowest measured CK1α level normalized to DMSO control
# Procedure: The following is an example of an assay that can be used to determine the CK1α degradation activity of Isoindolinone Carboxamide Compounds in a cell line, for example, the MDS-L cell line.
# Compounds were dispensed by an acoustic dispenser (ATS acoustic transfer system from EDC Biosystems) into a 384-well in a 10 point dose-response curve using 3-fold dilutions starting at 10 μM and going down to 0.0005 μM in DMSO. […] Assay plates were incubated at 37° C. with 5% CO2 for the indicated times. At the different time points, 25 μL of the InCELL Hunter™ Detection Reagent Working Solution (catalog number 96-0002, DiscoverX, Fremont, Calif.) was added to each well and incubated at RT for 30 min protected from light. After 30 min, luminescence was read on a PHERAstar luminometer (BMG LABTECH, Cary, N.C.).
# CK1α levels in compound-treated wells were normalized to that of DMSO control and expressed as percent of control (PoC) (y).
# The lowest measured CK1α level normalized to DMSO control in response to compound treatment, termed Y value, was used to characterize the compound-mediated CK1α degradation efficiency.
# T1 sequence (P48729 whole entry): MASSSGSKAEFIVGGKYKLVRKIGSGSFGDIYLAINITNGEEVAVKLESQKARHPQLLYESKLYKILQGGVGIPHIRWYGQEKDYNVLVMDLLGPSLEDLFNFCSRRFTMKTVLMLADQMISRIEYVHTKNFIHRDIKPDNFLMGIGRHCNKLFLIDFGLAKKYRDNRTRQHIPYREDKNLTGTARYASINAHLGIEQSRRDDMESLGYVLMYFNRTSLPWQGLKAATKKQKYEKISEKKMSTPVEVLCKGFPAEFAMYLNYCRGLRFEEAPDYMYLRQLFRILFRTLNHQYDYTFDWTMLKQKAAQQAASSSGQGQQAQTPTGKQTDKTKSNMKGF
# T1 sequence (Q96SW2 whole entry): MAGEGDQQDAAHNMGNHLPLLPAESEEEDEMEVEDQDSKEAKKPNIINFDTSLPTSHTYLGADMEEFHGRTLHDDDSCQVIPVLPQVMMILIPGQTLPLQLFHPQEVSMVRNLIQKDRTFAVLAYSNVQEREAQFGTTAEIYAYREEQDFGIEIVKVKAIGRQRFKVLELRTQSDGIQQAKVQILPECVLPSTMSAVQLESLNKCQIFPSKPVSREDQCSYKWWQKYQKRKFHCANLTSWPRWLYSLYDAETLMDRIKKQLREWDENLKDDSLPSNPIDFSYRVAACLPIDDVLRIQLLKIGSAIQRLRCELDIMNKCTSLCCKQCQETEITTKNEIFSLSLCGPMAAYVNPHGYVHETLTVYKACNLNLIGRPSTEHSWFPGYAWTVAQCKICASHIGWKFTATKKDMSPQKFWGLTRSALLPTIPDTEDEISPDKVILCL
# T1 sequence (Q16531 whole entry partner): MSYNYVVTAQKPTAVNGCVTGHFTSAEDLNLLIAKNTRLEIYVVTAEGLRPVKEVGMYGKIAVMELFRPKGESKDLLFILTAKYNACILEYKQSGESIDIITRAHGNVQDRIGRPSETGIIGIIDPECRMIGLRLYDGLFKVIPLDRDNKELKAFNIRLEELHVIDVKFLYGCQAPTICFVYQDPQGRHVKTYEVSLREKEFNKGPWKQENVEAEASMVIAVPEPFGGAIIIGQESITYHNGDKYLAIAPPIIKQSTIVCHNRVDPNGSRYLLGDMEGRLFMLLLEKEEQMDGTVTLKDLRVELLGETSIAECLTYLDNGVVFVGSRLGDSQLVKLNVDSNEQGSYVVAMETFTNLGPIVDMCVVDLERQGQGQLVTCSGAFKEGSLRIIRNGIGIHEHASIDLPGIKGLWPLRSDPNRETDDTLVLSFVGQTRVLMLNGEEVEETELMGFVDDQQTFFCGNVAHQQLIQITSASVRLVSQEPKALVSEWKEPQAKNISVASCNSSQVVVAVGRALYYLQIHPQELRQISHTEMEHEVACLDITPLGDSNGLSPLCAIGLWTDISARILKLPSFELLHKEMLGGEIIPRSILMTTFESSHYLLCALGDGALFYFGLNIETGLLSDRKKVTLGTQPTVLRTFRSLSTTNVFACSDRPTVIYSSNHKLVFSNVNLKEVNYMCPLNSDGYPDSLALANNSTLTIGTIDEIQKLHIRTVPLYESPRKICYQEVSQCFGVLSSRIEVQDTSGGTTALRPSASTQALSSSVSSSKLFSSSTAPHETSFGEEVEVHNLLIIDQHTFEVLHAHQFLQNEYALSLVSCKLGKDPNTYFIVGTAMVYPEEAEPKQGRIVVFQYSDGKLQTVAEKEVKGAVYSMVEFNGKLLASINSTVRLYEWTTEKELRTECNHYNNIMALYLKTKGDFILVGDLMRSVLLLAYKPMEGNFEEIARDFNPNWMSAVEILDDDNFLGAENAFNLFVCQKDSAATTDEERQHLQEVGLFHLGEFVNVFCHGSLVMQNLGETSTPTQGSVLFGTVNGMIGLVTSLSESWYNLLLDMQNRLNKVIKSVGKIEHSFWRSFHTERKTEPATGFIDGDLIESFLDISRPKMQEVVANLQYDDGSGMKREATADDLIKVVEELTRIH
SMILES,DC50 [nM],Y
"O=C1CCC(N2Cc3c(ccc(C(=O)N[C@H](c4ccccc4)C(F)(F)F)c3F)C2=O)C(=O)N1 (stereo partly drawn) [Example 89, 2-(2,6-dioxopiperidin-3-yl)-4-fluoro-1-oxo-N-((R)-2,2,2-trifluoro-1-phenylethyl)isoindoline-5-carboxamide]",< 100,** (a Y value (shown as**) of 20%<Y≤35%)
"Cn1ccc([C@@H](NC(=O)c2ccc3c(c2)CN(C2CCC(=O)NC2=O)C3=O)C(F)(F)F)n1 (stereo partly drawn) [Example 65, 2-(2,6-dioxopiperidin-3-yl)-1-oxo-N-((R)-2,2,2-trifluoro-1-(1-methyl-1H-pyrazol-3-yl)ethyl)isoindoline-5-carboxamide]",500 to 1000,** (a Y value (shown as**) of 20%<Y≤35%)
"O=C1CCC(N2Cc3cc(C(=O)N[C@H](c4ccc(CN5CCCC5)cc4)C(F)(F)F)ccc3C2=O)C(=O)N1 (stereo partly drawn) [Example 180, 2-(2,6-dioxopiperidin-3-yl)-1-oxo-N-((R)-2,2,2-trifluoro-1-(4-(pyrrolidin-1-ylmethyl)phenyl)ethyl)isoindoline-5-carboxamide]",< 100,* (a Y value (shown as *) of 0<Y≤20%)
"O=C1CCC(N2Cc3c(ccc(C(=O)N[C@H](c4ncc(Cl)cc4Cl)C(F)(F)F)c3F)C2=O)C(=O)N1 (stereo partly drawn) [Example 178, N-((R)-1-(3,5-dichloropyridin-2-yl)-2,2,2-trifluoroethyl)-2-(2,6-dioxopiperidin-3-yl)-4-fluoro-1-oxoisoindoline-5-carboxamide]",< 100,* (a Y value (shown as *) of 0<Y≤20%)
"CC(C)[C@H](NC(=O)c1ccc2c(c1)CN(C1CCC(=O)NC1=O)C2=O)c1ncccc1Cl (stereo partly drawn) [Example 172, N-((S)-1-(3-chloropyridin-2-yl)-2-methylpropyl)-2-(2,6-dioxopiperidin-3-yl)-1-oxoisoindoline-5-carboxamide]",< 100,* (a Y value (shown as *) of 0<Y≤20%)
C[C@H](NC(=O)c1ccc2c(c1)CN(C1CCC(=O)NC1=O)C2=O)C1CC1 (stereo partly shown) [Example 5],100 to 500,** (a Y value (shown as**) of 20%<Y≤35%)
"O=C1CCC(N2Cc3c(ccc(C(=O)N[C@H](c4ccc(OC(F)(F)F)cc4)C(F)(F)F)c3F)C2=O)C(=O)N1 (stereo partly drawn) [Example 135, 2-(2,6-dioxopiperidin-3-yl)-4-fluoro-1-oxo-N-((R)-2,2,2-trifluoro-1-(4-(trifluoromethoxy)phenyl)ethyl)isoindoline-5-carboxamide]",100 to 500,** (a Y value (shown as**) of 20%<Y≤35%)
"O=C1CCC(N2Cc3cc(C(=O)N[C@H](CC(F)(F)F)c4ccccc4)ccc3C2=O)C(=O)N1 (stereo partly drawn) [Example 187, 2-(2,6-dioxopiperidin-3-yl)-1-oxo-N-((R)-3,3,3-trifluoro-1-phenylpropyl)isoindoline-5-carboxamide]",100 to 500,** (a Y value (shown as**) of 20%<Y≤35%)
"O=C1CCC(N2Cc3cc(C(=O)N[C@H](c4cccc(OC5CC5)c4)C(F)(F)F)ccc3C2=O)C(=O)N1 (stereo partly drawn) [Example 122, N-((R)-1-(3-cyclopropoxyphenyl)-2,2,2-trifluoroethyl)-2-(2,6-dioxopiperidin-3-yl)-1-oxoisoindoline-5-carboxamide]",< 100,* (a Y value (shown as *) of 0<Y≤20%)
"O=C1CCC(N2Cc3cc(C(=O)N[C@H](C4CCC5(CC4)CC5)C(F)(F)F)ccc3C2=O)C(=O)N1 (stereo partly drawn) [Example 166, 2-(2,6-dioxopiperidin-3-yl)-1-oxo-N-((1R)-2,2,2-trifluoro-1-(spiro[2.5]octan-6-yl)ethyl)isoindoline-5-carboxamide]",< 100,* (a Y value (shown as *) of 0<Y≤20%)
"CC1([C@@H](NC(=O)c2ccc3c(c2)CN(C2CCC(=O)NC2=O)C3=O)C(F)(F)F)CCCC1 (stereo partly drawn) [Example 83, 2-(2,6-dioxopiperidin-3-yl)-1-oxo-N-((R)-2,2,2-trifluoro-1-(1-methylcyclopentyl)ethyl)isoindoline-5-carboxamide]",< 100,* (a Y value (shown as *) of 0<Y≤20%)
"O=C1CCC(N2Cc3cc(C(=O)N[C@H](c4cccc(OC(F)(F)F)c4)C(F)(F)F)ccc3C2=O)C(=O)N1 (stereo partly drawn) [Example 58, 2-(2,6-dioxopiperidin-3-yl)-1-oxo-N-((R)-2,2,2-trifluoro-1-(3-(trifluoromethoxy)phenyl)ethyl)isoindoline-5-carboxamide]",< 100,* (a Y value (shown as *) of 0<Y≤20%)
"O=C1CCC(N2Cc3cc(C(=O)N[C@H](c4cccc(C(F)(F)F)c4)C(F)(F)F)c(F)cc3C2=O)C(=O)N1 (stereo partly drawn) [Example 90, 2-(2,6-dioxopiperidin-3-yl)-6-fluoro-1-oxo-N-((R)-2,2,2-trifluoro-1-(3-(trifluoromethyl)phenyl)ethyl)isoindoline-5-carboxamide]",100 to 500,** (a Y value (shown as**) of 20%<Y≤35%)
"CC1(C)CCC([C@@H](NC(=O)c2ccc3c(c2)CN(C2CCC(=O)NC2=O)C3=O)C(F)(F)F)CC1 (stereo partly drawn) [Example 46, N-((R)-1-(4,4-dimethylcyclohexyl)-2,2,2-trifluoroethyl)-2-(2,6-dioxopiperidin-3-yl)-1-oxoisoindoline-5-carboxamide]",100 to 500,* (a Y value (shown as *) of 0<Y≤20%)
"O=C1CCC(N2Cc3cc(C(=O)N[C@H](c4cccc(C(F)(F)F)c4)C(F)(F)F)ccc3C2=O)C(=O)N1 (stereo partly drawn) [Example 52, 2-(2,6-dioxopiperidin-3-yl)-1-oxo-N-((R)-2,2,2-trifluoro-1-(3-(trifluoromethyl)phenyl)ethyl)isoindoline-5-carboxamide]",< 100,* (a Y value (shown as *) of 0<Y≤20%)
C[C@@H](NC(=O)c1ccc2c(c1)CN(C1CCC(=O)NC1=O)C2=O)C1CCCC1 (stereo partly shown) [Example 132],100 to 500,** (a Y value (shown as**) of 20%<Y≤35%)
"COc1ccc([C@@H](NC(=O)c2ccc3c(c2)CN(C2CCC(=O)NC2=O)C3=O)C(F)(F)F)cc1 (stereo partly drawn) [Example 35, 2-(2,6-dioxopiperidin-3-yl)-1-oxo-N-((R)-2,2,2-trifluoro-1-(4-methoxyphenyl)ethyl)isoindoline-5-carboxamide]",< 100,* (a Y value (shown as *) of 0<Y≤20%)
"O=C1CC[C@@H](N2Cc3cc(C(=O)N[C@H](c4ccccc4)C(F)(F)F)ccc3C2=O)C(=O)N1 [Example 60, 2-((R)-2,6-dioxopiperidin-3-yl)-1-oxo-N-((R)-2,2,2-trifluoro-1-phenylethyl)isoindoline-5-carboxamide]",< 100,* (a Y value (shown as *) of 0<Y≤20%)
"O=C1CCC(N2Cc3cc(C(=O)N[C@H](c4ncccc4F)C(F)(F)F)ccc3C2=O)C(=O)N1 (stereo partly drawn) [Example 110, 2-(2,6-dioxopiperidin-3-yl)-1-oxo-N-((R)-2,2,2-trifluoro-1-(3-fluoropyridin-2-yl)ethyl)isoindoline-5-carboxamide]",< 100,* (a Y value (shown as *) of 0<Y≤20%)
"CC(C)[C@H](NC(=O)c1ccc2c(c1)CN(C1CCC(=O)NC1=O)C2=O)c1ccccc1Cl (stereo partly drawn) [Example 169, N-((S)-1-(2-chlorophenyl)-2-methylpropyl)-2-(2,6-dioxopiperidin-3-yl)-1-oxoisoindoline-5-carboxamide]",< 100,* (a Y value (shown as *) of 0<Y≤20%)
